Patent US10976312B2, “Compositions and methods for capture of cellular targets of bioactive agents” (Promega Corporation, priority 2012, dated 2021)
Values joined by “and” are separate entries in the source; they are usually repeats but may differ in a detail not shown here. Equal entries are not always repeated.

Legend:
[1] = target: T1, NANOLUC-p38 fusion protein (Homo sapiens, UniProt Q16539); test: HALOTAG dimer / HALOLINK plate capture of NANOLUC-p38 from cell lysates (Example 2); format: binding; details: cells treated with drug, listed as BIRB-chloroalkane
T1 construct: expressed in transfected cells
Experimental: Different amounts of a HALOTAG protein dimer (dimer of SEQ ID NO: 1) were added to cell lysates expressing a NANOLUC-p38 fusion protein (e.g., reporter/cellular-target fusion) which have or have not been treated with BIRB-chloroalkane (e.g., bioactive-agent/capture-ligand conjugate) as shown in Table 1. After 15 minute incubation, the samples were placed into wells of white, 96-well polystyrene plates activated with HALOTAG ligand (HALOLINK plates; Promega Corp.) and further incubated for 45 minutes. The wells were then washed PBS+0.05% Tween-20 (PBST). Then, 50 ul PBS followed by 50 ul of NANOGLO luciferase detection reagent was added to the wells, and luminescence measured.
Table 2 indicates differences in luminescence in samples with and without HALOTAG dimer (e.g., dimer of SEQ ID NO: 1) that indicate specific pull-down of the NANOLUC-p38 fusion protein.

[2] = target: T2, NANOLUC-p38 alpha fusion protein (Homo sapiens, UniProt Q16539); test: Pull-down of NANOLUC-p38 alpha fusion from living HEK293 cells onto HALOTAG protein beads (Example 3); format: cell-based
T2 construct: expressed in transfected cells; host or cells: HEK293
Experimental: HEK293 cells in wells of a 96-well plate were transfected using PEI with plasmid DNA encoding NANOLUC-p38 fusion. Twenty-four hours post-transfection, cells were incubated with a final concentration of 10 μM PBI-4834 while control cells were not treated with the conjugated drug. Following equilibrium binding of 2 hours, the media was removed, cells were quickly washed with PBS and lysed in a detergent-based lysis buffer for 10 minutes. The cell lysates were then transferred to wells of a 96-well plate which contained 0.5 μl settled paramagnetic HALOTAG protein beads (Promega Corp.) and incubated with shaking for 15-45 minutes. Following binding, the unbound fraction was removed and the HALOTAG protein paramagnetic beads were washed. 150 uM unconjugated BIRB796 was then added and the captured NANOLUC-p38 alpha fusion was specifically released from the beads by competition with the unconjugated BIRB796 for 60 minutes. The released NANOLUC-p38 alpha fusion protein (+PBI-4834) and control (−PBI4834) was detected using NANOGLO luciferase reagent (Promega Corp.).

[3] = target: T2, NANOLUC-p38 alpha fusion protein; test: Pull-down of NANOLUC-p38 alpha fusion from HEK293 cell lysates (Example 5); format: binding; details: 1 μM conjugate, HEK293 cell lysate
Experimental: In this example, BIRB-chloroalkane conjugate (PBI-4834) and BIRB chloroalkane conjugate containing a cleavable linker (PBI-5131) were utilized to pull-down a NANOLUC-p38 alpha fusion protein from HEK293 cell lysates. Lysate of cells expressing NANOLUC-p38 fusion were incubated with 1 μM PBI-4834 or PBI-5131 (final concentration) while control lysates were not treated with the conjugated drugs. Following equilibration binding for 2 h, the lysates were transferred to wells of a 96-well plate containing 0.5 μl settled paramagnetic HALOTAG protein beads and incubated with shaking for 45 min. Following binding the unbound fraction was removed, the HALOTAG protein paramagnetic beads were washed 3×, and the captured NANLUC-p38 alpha fusion specifically released from the beads by one of two methods: • 1. 150 μM unconjugated BIRB796 was used to compete for binding with the conjugated BIRB796 on the NANOLUC-p38 alpha fusion for 60 min. • 2. The NANOLUC-p38 alpha fusion was rapidly released through 10 min chemical cleavage of the chloroalkane linker with 10 mM of sodium hydrosulfite (PBI-5131 is a chloroalkane cleavable linker).

p38 alpha = target: T3, p38 alpha (Homo sapiens, UniProt Q16539); test: Endogenous target pull-down from HEK293 cells, western blot and mass spec (Example 8); format: cell-based; details: 10 uM conjugate, listed as BIRB-CA
T3 construct: isolate, e.g., pull-down, endogenous targets from cells; endogenous in cells; host or cells: HEK293
Experimental: HEK293 cells were plated in a 6 well plate (2.5×10^5 cells). 48 hours post plating, a final concentration of 10 uM of BIRB-chloroalkane (PBI-4834) was added to 2 wells while control cells were not treated with the drug conjugate. Following equilibrium binding for 2 h, the media was removed, and the cells were quickly washed with PBS and lysed in detergent-based lysis buffer for 10 min. Cell lysates were then transferred to an Eppendorf® tube containing 12.5 ul of settled paramagnetic HALOTAG protein beads and incubated with shaking for 15 min. Following binding, the unbound fraction was removed, the HALOTAG protein paramagnetic beads washed 3×, and the captured targets specifically released from the beads by competition with 150 μM unconjugated BIRB796 for 60 min. The released targets were subjected to mass spec analysis as well as western blot analysis using an anti-p38 alpha antibody (Abcam).

T2 sequence (Q16539 whole entry, the tested form may be a part): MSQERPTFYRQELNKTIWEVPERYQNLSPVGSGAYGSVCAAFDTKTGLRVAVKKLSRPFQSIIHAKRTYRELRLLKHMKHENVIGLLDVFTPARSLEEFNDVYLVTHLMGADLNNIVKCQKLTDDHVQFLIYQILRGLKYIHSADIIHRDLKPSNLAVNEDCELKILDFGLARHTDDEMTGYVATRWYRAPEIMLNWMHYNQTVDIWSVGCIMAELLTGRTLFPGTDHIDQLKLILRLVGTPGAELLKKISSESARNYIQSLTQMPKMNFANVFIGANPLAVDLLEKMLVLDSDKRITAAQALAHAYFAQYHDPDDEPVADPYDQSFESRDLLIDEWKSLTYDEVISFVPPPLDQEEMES
T1 sequence (Q16539 whole entry, the tested form may be a part): as above
T3 sequence (Q16539 whole entry): as the sequence (Q16539 whole entry, the tested form may be a part) above

CC(C)(C)c1cc(NC(=O)Nc2ccccc2)n(-c2cccc(CNC(=O)CNC(=O)OCCOCCOCCOC(=O)NCCOCCOCCCCCCCl)c2)n1 [PBI-4834]
luminescence (captured NANOLUC-p38) ([1]; 2 ug/well HALOTAG dimer): 236900 and 397958 and 431167 | luminescence (captured NANOLUC-p38) ([1]; 6 ug/well HALOTAG dimer): 401205 and 538956 and 596504 | luminescence (captured NANOLUC-p38) ([1]; 8 ug/well HALOTAG dimer): 395510 and 526903 and 610628 | luminescence (captured NANOLUC-p38) ([1]; No HALOTAG dimer): 278085 and 275690 and 443682 | expressed fusion specifically captured to the beads ([2]; 10 μM conjugate, HEK293 cells, HALOTAG protein beads): 1% | signal over background of capture ([2]; within 15 minutes of capture on HALOTAG protein beads): high signal over background | pull-down efficiency of NANOLUC-p38 alpha [3]: significantly higher compared to PBI-5131 | pull-down of endogenous p38 alpha (p38 alpha): specific pull down of p38
